Data on 1 molecule can be found in patent publication US20210205291A1, “NITROGENOUS HETEROCYCLIC AMIDE DERIVATIVE, PREPARATION METHOD THEREOF, AND PHARMACEUTICAL APPLICATION” (Sichuan Haisco Pharmaceutical Co., Ltd., priority 2016, published 2021).

Data set [1] is described as follows: Pharmacokinetic evaluation in SD rats. In kind it is in vivo. As for the experimental part:
18 male SD rats, eight weeks old, were purchased from Vital River Laboratory Animal Technology Co., Ltd., and adapted for 3 days before the experiments were started. The SD rats were randomized into 3 groups, fasted one day before administration but allowed access to water. The 3 groups of animals were administrated with 1 mg/kg compound either by tail vein injection (iv) or by intratracheal (it) administration. The compounds were formulated into 20 mg/ml stock solutions with 83% ethanol and 17% Tween80. For intravenous injection, 0.1 ml of the stock solution was diluted to the final volume with 9.9 ml physiological saline. For intratracheal administration, 0.25 ml of the stock solution was diluted with 4.75 ml physiological saline to the final volume. For the group for intravenous injection, right before administration (0 h) and 5 min, 15 min, 30 min, 1.0, 2.0, 4.0, 8.0, 24.0 h after administration, 0.1 ml blood was taken from the orbit, heparin was added for anticoagulation, and plasma was separated after centrifugation at 4° C., 3000 rpm for 10 min and stored at −80° C. before testing. For the group for intratracheal administration, right before administration and 5 min, 15 min, 30 min, 1.0, 2.0, 4.0, 8.0, 24.0 h after administration, blood was taken and treated the same way as for the group for intravenous injection. 30 μl plasma of rat at each of the time points was mixed with 200 μl acetonitrile solution containing an internal standard, vortexed for 1 min, and centrifuged at 11300 rpm for 10 min, and 175 μl of the supernatant was added to a 96-well plated for LC-MS/MS analysis. The major pharmacokinetic parameters were analyzed using the software WinNonlin 6.3 at the non-compartment mode.

The target in data set [2] is human muscarine receptor M3 (Homo sapiens, UniProt P20309). Kind of data set: Inhibitory activity against human muscarine receptor M3 (aequorin luminescence in CHO cells, acetylcholine challenge). In kind it is cell-based. As to conditions: CHO cells expressing hM3 and apo-Aequorin; acetylcholine chloride 112.92 nM. As for the experimental part:
CHO cells (PerkinElmer, ES-212-AF) that stably express human muscarine receptor 3 (hM3) and apo-Aequorin were cultured at 37° C. 5% CO2 in Ham's F12 media (Invitrogen 12500-062) containing 10% fetal bovine serum (FBS) (Gibico 10099-141), 400 μg/mL G418 (sigma G5013) and 250 μg/mL Zeocin (Invivogen ant-zn-5p), until a confluency of 90% to 100% was reached. Cells were separated by rinsing with PBS/5 mM EDTA, collected by centrifugation, re-suspended in phenol red-free Ham's F12 media (Invitrogen 12500-062) containing 0.1% BSA (BOVOGEN BSAS 100), and counted. The cell concentration was adjusted to 1×10^6 cells/ml. 15 ml of the cell suspension was added to a 50-ml centrifuge tube, to which Coelenterazine-h (Promega S2011) was added to a final concentration of 5 μM. The tube was wrapped with a tin foil to shade light, and incubated on a rotary shaker at 20° C. for 4 hours. The cells were diluted with a phenol red-free/0.1% BSA Ham's F12 medium to a final concentration of 5.0/10^5 cells/ml, placed on a rotary shaker in low-speed rotation, and incubated at room temperature for at least 1 hour. The compounds of the Examples were formulated with DMSO into 10 mM stock solutions, diluted in series with a phenol red-free/0.1% BSAHam's F12 medium (log(M): −7, −8, −9, −10, −11), and added to a 96-well plate at 50 μl/well. 50 μl cell suspension was further added to each well (25,000 cells/well) and incubated for 15 min at room temperature. The 96-well plate was placed under a microplate reader (Perkin Elmer, Envision), and a 50 μl solution of acetylcholine chloride (Sigma A6625) was added to each well at a concentration of 112.92 nM (hM3) with a microplate reader sample injector. The luminescence was recorded over 20 seconds, and IC50 values were calculated and analyzed by Origin 7.5.

For data set [3], the system named is methacholine-induced bronchoconstriction in guinea pigs. Nature of the data set: Inhibition against methacholine-induced bronchoconstriction in guinea pigs (PenH, whole-body plethysmograph). Type of data set: in vivo. The conditions noted are these: intratracheal, 0.3 nmol per animal, 3 mg/ml methacholine. As for the experimental part:
8-week-old guinea pigs (all male) were purchased from Vital River Laboratory Animal Technology Co., Ltd., and adapted for 3 days before the experiments were started. The test compounds were formulated into 0.6 mM stock solutions with 83% dry ethanol+17% Tween80, which were diluted 500 times before administration. Before administration, the animals were anesthetized with 5% isoflurane by using a small-animal anesthetic apparatus (Matrx: VME2), wherein the anesthetic duration was 1.5 to 2 min. The anesthetized guinea pigs were fixed on a tracheal cannula platform, and intratracheally administrated with the compounds at 250 μl/animal by using a rat liquid-aerosol administration kit (penn-century; MSA-250-R). 4 hours and 24 hours after administration, the enhanced pauses (PenH) of the guinea pigs were measured in a whole-body plethysmograph (DSI; GS220A12-R7B). 3 mg/ml methacholine (Mch) was administrated by nebulization for 36 sec, and data was recorded over 7 min. The average of PenH was calculated (see J Pharmacol Exp Ther 345:260-270).
PenH calculation formula: PenH=PEP/PIP*Pause; Pause=(Te−Tr)/Tr
Te: Duration of expiratory phase (s)
Tr: Duration of relaxation phase (s)
PEP: Expiratory peak flow rate (ml/s)
PIP: Inspiratory peak flow rate (ml/s)

The target of data set [4] is human β2-adrenergic receptor (Homo sapiens, UniProt P07550). Kind of data set: Agonistic activity on human β2-adrenergic receptor (LANCE Ultra cAMP Assay in CHO cells). In kind it is cell-based. The conditions noted are these: CHO cells expressing hβ2; cAMP TR-FRET. As for the experimental part:
The agonistic activity of the compounds of the Examples on the human adrenergic receptor was measured by the LANCE Ultra cAMP Assay.
CHO cells (PerkinElmer, ES-034-AF) that stably express human adrenergic receptor (hβ2) were cultured at 37° C. 5% CO2 in MEM-alpha media (Invitrogen 12561-056) containing 10% fetal bovine serum (FBS) (Gibico 10099-141) and 250 μg/ml Zeocin (InvivoGen ant-zn-5p), until a confluency of 90% to 100% was reached. Then the agonism on cAMP was tested by using a LANCE Ultra cAMP Assay kit (PerkinElmer TRF0263). Cells were separated with PBS/5 mM EDTA, collected by centrifugation, re-suspended in Stimulation Buffer (1×HBSS, 5 mM HEPES, 0.5 mM IBMX, 0.1% BSA, pH=7.4), and adjusted to a cell concentration of 6×10^5 cells/ml. The compounds of the Examples were formulated with DMSO into 10 mM stock solutions, diluted in series with Stimulation Buffer, and added to a 384-well plate at 5 μl/well. 5 μl cell suspension was further added to each well (3,000 cells/well), incubated for 30 min at room temperature, then 5 μl of a 4×Eu-cAMP trace working solution was added to each well, and then 5 μl of a 4×Ulight-anti-cAMP working solution was added to each well, followed by incubation at room temperature for 1 hour. The 384-well plate was detected for TR-FRET under a microplate reader (Perkin Elmer, Envision), and EC50 values were calculated and analyzed by Origin 7.5.
A general note: Time-resolved FRET reads energy transfer from a long-lived donor to a nearby acceptor.

Where [5] appears, read: Sprague-Dawley (SD), rat, inhaled or intranasal, male SD rats, it (intratracheal), 1 mg/kg, plasma.
Setting [6] is: Sprague-Dawley (SD), rat, male SD rats, iv (tail vein), 1 mg/kg, plasma.

human muscarine receptor M3, sequence (P20309 whole entry): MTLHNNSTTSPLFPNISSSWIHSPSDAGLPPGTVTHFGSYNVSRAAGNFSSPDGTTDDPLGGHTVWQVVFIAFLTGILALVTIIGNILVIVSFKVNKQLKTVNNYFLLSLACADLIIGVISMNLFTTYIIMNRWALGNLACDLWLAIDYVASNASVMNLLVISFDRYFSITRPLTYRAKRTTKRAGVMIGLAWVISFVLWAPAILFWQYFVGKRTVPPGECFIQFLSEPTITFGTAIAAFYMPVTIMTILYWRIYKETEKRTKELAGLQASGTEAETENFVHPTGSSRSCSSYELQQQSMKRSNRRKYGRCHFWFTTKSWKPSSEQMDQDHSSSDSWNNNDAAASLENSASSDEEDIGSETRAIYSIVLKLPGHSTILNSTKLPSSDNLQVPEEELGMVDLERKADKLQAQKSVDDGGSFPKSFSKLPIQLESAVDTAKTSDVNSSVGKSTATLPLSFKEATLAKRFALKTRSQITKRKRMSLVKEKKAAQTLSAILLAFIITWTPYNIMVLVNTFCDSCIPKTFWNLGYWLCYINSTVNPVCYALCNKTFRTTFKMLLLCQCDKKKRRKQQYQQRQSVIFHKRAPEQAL
human β2-adrenergic receptor, sequence (P07550 whole entry): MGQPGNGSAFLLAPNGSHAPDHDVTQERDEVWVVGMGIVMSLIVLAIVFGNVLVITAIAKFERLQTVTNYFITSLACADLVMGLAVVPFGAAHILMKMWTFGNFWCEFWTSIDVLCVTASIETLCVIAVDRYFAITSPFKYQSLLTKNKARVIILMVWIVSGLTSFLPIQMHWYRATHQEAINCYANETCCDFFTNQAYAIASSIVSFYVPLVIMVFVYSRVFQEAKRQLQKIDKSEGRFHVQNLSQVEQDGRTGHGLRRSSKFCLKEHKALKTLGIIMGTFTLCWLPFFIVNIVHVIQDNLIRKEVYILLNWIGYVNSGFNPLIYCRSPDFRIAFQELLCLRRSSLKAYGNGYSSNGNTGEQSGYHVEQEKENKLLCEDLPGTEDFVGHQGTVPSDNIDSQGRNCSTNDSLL

Take `O=C(Nc1ccc(CNC[C@H](O)c2ccc(O)c3[nH]c(=O)ccc23)cc1)OCC1CCN(C(=O)CCN2CCC(OC(=O)Nc3ccccc3-c3ccccc3)CC2)CC1` [Compound 2, [1-[3-[4-[(2-phenylphenyl)carbamoyloxy]-1-piperidyl]propanoyl]-4-piperidyl]methyl N-[4-[[[(2R)-2-hydroxy-2-(8-hydroxy-2-oxo-1H-quinolin-5-yl)ethyl]amino]methyl]phenyl]carbamate; ditrifluoroacetic acid]: in data set [1] (setting [5]), the AUC(0-inf) – broadly, total exposure, with the tail of the curve extrapolated – was found to be 11.6 ng·h/mL; the highest level (Cmax) was 7.08 ng/mL; the time to peak (Tmax) (usually the time from dosing to the highest level) was 34.8 min; the half-life (as a rule, how long it takes for the measured level to halve) is 45 min. In data set [1] (setting [6]), the AUC(0-inf) was 9.27 ng·h/mL and the half-life was 27.6 min. Moreover, in data set [1] (after iv and it administrations, rats, in words), the “in vivo exposure level” value is given as “low in vivo exposure level”. Also, the IC50 (in general, the concentration at which inhibition is half-maximal) in data set [2] turned out to be 1.69 nM. Besides, in data set [3] (4 h after administration), the “PenH Inhibition (%) 4 h” value came to 94.8%. The “PenH Inhibition (%) 24 h” value in data set [3] (24 h after administration) worked out at 53.8%. Also, the EC50 (as a rule, the concentration that produces a half-maximal response) in data set [4] came out at 1.85 nM.
